Source: US11136308B2, “Substituted quinazoline and quinazolinone compounds and methods of use thereof” (Araxes Pharma LLC, priority 2017, dated 2021)

What follows are molecules tested against T1, KRAS G12C 1-169, his-tagged protein, GDP-loaded (Homo sapiens, UniProt P01116, G12C) (assay: Biochemical assay: covalent binding to KRAS G12C measured by mass spectrometry (RapidFire/TOF or Q-Exactive)). Settings: covalent binding to KRAS G12C after a thirty minute incubation period.
T1 construct: KRAS G12C 1-169, his-tagged protein, GDP-loaded; His tag
Experimental: Test compounds were prepared as 10 mM stock solutions in DMSO (Fisher cat #BP-231-100). KRAS G12C 1-169, his-tagged protein, GDP-loaded was diluted to 0.5 μM in buffer (20 mM Hepes, 150 mM NaCl, 1 mM MgCl2). Compounds were tested for activity as follows:
Compounds were diluted to 50× final test concentration in DMSO in 96-well storage plates. Compound stock solutions were vortexed before use and observed carefully for any sign of precipitation. Dilutions were as follow: • For 100 μM final compound concentration, compounds were diluted to 5000 μM (5 μL 10 mM compound stock+5 μL DMSO and mixed well by pipetting. • For 30 μM final compound concentration, compounds were diluted to 1500 μM (3 μL 10 mM compound stock+17 μL DMSO) and mixed well by pipetting. • For 10 μM final compound concentration, compounds were diluted to 500 μM (2 μL 10 mM compound stock+38 μL DMSO) and mixed well by pipetting. 49 μL of the stock protein solution was added to each well of a 96-well PCR plate (Fisher cat #1423027). 1 μl of the diluted 50× compounds were added to appropriate wells in the PCR plate using 12-channel pipettor. Reactions were mixed carefully and thoroughly by pipetting up/down with a 200 μL multi-channel pipettor. The plate was sealed well with aluminum plate seal, and stored in drawer at room temperature for 10 minutes, 30 minutes, 2 hours or 24 hours. 5 μL of 2% formic acid (Fisher cat #A117) in de-ionized H2O was then added to each well followed by mixing with a pipette. The plate was then resealed with aluminum seal and stored on dry ice until analyzed as described below.
The above described assays were analyzed by mass spectrometry according to one of the following two procedures:
The MS instrument is set to positive polarity, 2 GHz resolution, and low mass (1700) mode and allowed to equilibrate for 30 minutes. The instrument is then calibrated, switched to acquisition mode and the appropriate method loaded.
After another 30 minute equilibration time, a blank batch (i.e., buffer) is run to ensure equipment is operating properly. The samples are thawed at 37° C. for 10 minutes, briefly centrifuged, and transfer to the bench top. Wells A1 and H12 are spiked with 1 μL 500 μM internal standard peptide, and the plates centrifuged at 2000×g for 5 minutes. The method is then run and masses of each individual well recorded.
The masses (for which integration data is desired) for each well are pasted into the platemap and exported from the analysis. Masses for the internal standards are exported as well. The data at 50 ppm is extracted for the +19 charge state, and identity of well A1 is assigned using the internal standard spike and integrated. Peak data is exported as a TOF list and the above steps are repeated individually, for the +20, 21, 22, 23, 24, and 25 charge states.
The masses and peak intensities of KRAS G12C protein species were measured using a Dionex RSLCnano system (Thermo Scientific) connected to a Q Exactive Plus mass spectrometer (Thermo Scientific).
[…] of sample was each loaded onto a Aeris™ 3.6 μm WIDEPORE C4 200 Å, LC Column 50×2.1 mm column maintained at 40° C. at a flow rate of 600 μL/min with 20% Solvent A (0.1% formic acid in H2O) and 80% Solvent B (0.1% formic acid in acetonitrile). The liquid chromatography conditions were 20% solvent B for 1 minute, 20% to 60% solvent B for 1.5 minutes, 60% to 90% solvent for 0.5 minute, 90% solvent B for 0.2 minute, 90% to 20% solvent B for 0.2 minute, and then equilibrated for 1.6 minute before the following sample injection. The flow rate was maintained at 600 μL/min throughout the sample analysis.
The mass spectrometer was operated in profile mode at a resolution of 17500, 5 microscans, using 50 msec max injection time and an AGC target of 1×10^6, and a full mass range from 800-1850 m/z was recorded. The HCD trapping gas was optimized for maximum sensitivity for intact proteins. […]
`C=CC(=O)N1CC(c2nc3ccc(-c4cc(O)cc5ccccc45)cc3c(=O)[nH]2)C1` [Compound 1, 2-(1-acryloylazetidin-3-yl)-6-(3-hydroxynaphthalen-1-yl)quinazolin-4(3H)-one] was tested, and the Binding % was “++ (++ indicates binding activity from 10 to 50%)”. `C=CC(=O)N1CC(c2nc3ccc(-c4cc(O)cc5ccccc45)cc3c(=O)n2C)C1` [Compound 2, 2-(1-acryloylazetidin-3-yl)-6-(3-hydroxynaphthalen-1-yl)-3-methylquinazolin-4(3H)-one] was tested, and the Binding % was “+++ (+++ indicates binding activity greater than 50%)”. `C=CC(=O)N1CC(c2nc3ccc(-c4c(C)ccc5[nH]ncc45)cc3c(=O)n2C)C1` [Compound 3, 2-(1-acryloylazetidin-3-yl)-3-methyl-6-(5-methyl-1H-indazol-4-yl)quinazolin-4(3H)-one] was tested, and the Binding % was “++ (++ indicates binding activity from 10 to 50%)”. `C=CC(=O)N1CC(c2nc3ccc(-c4cc(O)cc5ccccc45)cc3c(=O)n2CCCN(C)C)C1` [Compound 4, 2-(1-acryloylazetidin-3-yl)-3-(3-(dimethylamino)propyl)-6-(3-hydroxynaphthalen-1-yl)quinazolin-4(3H)-one] was tested, and the Binding % was “+++ (+++ indicates binding activity greater than 50%)”. `C=CC(=O)N1CC(c2nc3ccc(-c4c(C)ccc5[nH]ncc45)cc3c(=O)n2CCCN(C)C)C1` [Compound 5, 2-(1-acryloylazetidin-3-yl)-3-(3-(dimethylamino)propyl)-6-(5-methyl-1H-indazol-4-yl)quinazolin-4(3H)-one] was tested, and the Binding % was “++ (++ indicates binding activity from 10 to 50%)”. With `C=CC(=O)N1CC(c2nc3ccc(-c4cccc5[nH]nc(I)c45)cc3c(=O)n2CCCN(C)C)C1` [Compound 6, 2-(1-acryloylazetidin-3-yl)-3-(3-(dimeth-ylamino)propyl)-6-(3-iodo-1H-indazol-4-yl)quinazolin-4(3H)-one] the Binding % was “+ (+ indicates binding activity up to 10%)”. In the case of `C=CC(=O)N1CC(c2nc3ccc(-c4cccc5[nH]nc(C)c45)cc3c(=O)n2CCCN(C)C)C1` [Compound 7, 2-(1-acryloylazetidin-3-yl)-3-(3-(dimeth-ylamino)propyl)-6-(3-methyl-1H-indazol-4-yl)quinazolin-4(3H)-one], the Binding % is reported as “+ (+ indicates binding activity up to 10%)”. With `C=CC(=O)N1CC(c2nc(NCC(=O)N3CC(N(C)C)C3)c3cc(-c4cc(O)cc5ccccc45)ccc3n2)C1` [Compound 21, 1-(3-(4-((2-(3-(dimethylamino)azetidin-1-yl)-2-oxoethyl)amino)-6-(3-hydroxynaphthalen-1-yl)quinazolin-2-yl)azetidin-1-yl)prop-2-en-1-one] the Binding % was “+ (+ indicates binding activity up to 10%)”. With `C=CC(=O)N1CC(Cc2nc3ccc(-c4cc(O)cc5ccccc45)cc3c(=O)n2CCCN(C)C)C1` [Compound 27, 2-((1-acryloylazetidin-3-yl)methyl)-3-(3-(dimethylamino)propyl)-6-(3-hydroxynaphthalen-1-yl)quinazolin-4(3H)-one] the Binding % was “+ (+ indicates binding activity up to 10%)”. With `C=CC(=O)N1CC(c2nc(-n3ccnc3)c3cc(-c4cc(O)cc5ccccc45)ccc3n2)C1` [Compound 30, 1-(3-(6-(3-hydroxynaphthalen-1-yl)-4-(1H-imidazol-1-yl)quinazolin-2-yl)azetidin-1-yl)prop-2-en-1-one] the Binding % was “+ (+ indicates binding activity up to 10%)”. For `C=CC(=O)N1CC(c2nc(NC3CCN(C4CC4)CC3)c3cc(-c4c(C)ccc5[nH]ncc45)ccc3n2)C1` [Compound 31, 1-(3-(4-((1-cyclopropylpiperi-din-4-yl)amino)-6-(5-methyl-1H-indazol-4-yl)quinazolin-2-yl)azetidin-1-yl)prop-2-en-1-one], the Binding % was “+ (+ indicates binding activity up to 10%)”. `C=CC(=O)N1CC(c2nc(N3CC(N(C)C)C3)c3cc(-c4c(C)ccc5[nH]ncc45)ccc3n2)C1` [Compound 32, 1-(3-(4-(3-(dimethylamino)aze-tidin-1-yl)-6-(5-methyl-1H-indazol-4-yl)quinazolin-2-yl)azetidin-1-yl)prop-2-en-1-one] was tested, and the Binding % was “+ (+ indicates binding activity up to 10%)”. With `C=CC(=O)N1CC(c2nc(NCCc3ncccn3)c3cc(-c4c(C)ccc5[nH]ncc45)ccc3n2)C1` [Compound 33, 1-(3-(6-(5-methyl-1H-indazol-4-yl)-4-((2-(pyrimidin-2-yl)ethyl)amino)quin-azolin-2-yl)azetidin-1-yl)prop-2-en-1-one] the Binding % was “+ (+ indicates binding activity up to 10%)”. In the case of `C=CC(=O)N1CC(c2nc(N3CCC(O)C3)c3cc(-c4cc(O)cc5ccccc45)ccc3n2)C1` (centres unmarked) [Compound 34, 1-(3-(6-(3-hydroxynaphthalen-1-yl)-4-(3-hydroxypyrrolidin-1-yl)quinazolin-2-yl)azetidin-1-yl)prop-2-en-1-one], the Binding % is reported as “+ (+ indicates binding activity up to 10%)”.
